ChEMBL document CHEMBL1201862, “PubChem BioAssay data set” (2004)
One block for each molecule: values may come before it. Active and inactive are the calls of the source.

Key:
[1] = HepG2 cell cytotoxicity, dose response, cytotoxicity control for Shn3 inhibitor project, CellTiter-Glo, cherry-picked (AID 624134); type: functional, cell-based
[2] = Shn3 3'UTR reporter inhibitors, dose response, cell-based, Clone20 osteoblasts, firefly luciferase, cherry-picked (AID 624132); type: functional;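 also: firefly luciferase luminescence from reporter carrying the Shn3 3'UTR in osteoblasts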
[3] = target: T1, COUP transcription factor 2 (Homo sapiens, UniProt P24468); assay: Luminescence-based cell-based high throughput dose response assay to identify inhibitors of COUP-TFII (NR2F2).; type: functional;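 also: HEK293 cells transiently cotransfected with COUP-TFII expression vector and reporter; luciferase reporter luminescence driven by COUP-TFII from the pX2-168 reporter plasmid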
T1 sequence (P24468 whole entry): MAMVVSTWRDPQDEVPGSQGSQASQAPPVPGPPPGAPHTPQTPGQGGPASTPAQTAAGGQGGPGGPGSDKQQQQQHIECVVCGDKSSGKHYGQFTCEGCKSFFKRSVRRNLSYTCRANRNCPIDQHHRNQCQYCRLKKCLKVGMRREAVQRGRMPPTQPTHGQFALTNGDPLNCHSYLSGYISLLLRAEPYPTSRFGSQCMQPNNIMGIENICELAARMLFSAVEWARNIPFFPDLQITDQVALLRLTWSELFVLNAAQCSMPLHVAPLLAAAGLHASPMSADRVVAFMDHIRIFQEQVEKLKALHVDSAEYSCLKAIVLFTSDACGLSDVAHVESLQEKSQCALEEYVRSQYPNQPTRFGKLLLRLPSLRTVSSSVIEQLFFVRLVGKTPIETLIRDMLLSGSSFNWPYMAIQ

[4] = control 3'UTR Renilla luciferase suppression, dose response, counter-screen for Shn3 inhibitor project, cell-based, Clone20-Shn3RL, cherry-picked (AID 624133); type: functional
[5] = target: Nuclear receptor subfamily 5 group A member 2 (Homo sapiens, UniProt O00482); type: functional, cell-based;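 also: HEK293T cells transfected with LRH-1 and a StAR promoter luciferase reporter; potency for inhibitors that lower LRH-1 driven reporter light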
Steroidogenic factor 1 = Steroidogenic factor 1 (Homo sapiens, UniProt Q13285); assay: Counterscreen for inverse agonists of the liver receptor homolog-1 (LRH-1; NR5A2): Luminescence-based cell-based high throughput dose response assay to identify inverse agonists of the Steroidogenic Factor 1 Nuclear Receptor (SF1; NR5A1).; type: functional
[6] = StAR promoter reporter inhibition counter-screen, dose response, counter-screen for LRH-1 inverse agonist project, cell-based, luminescence, luciferase reporter (AID 651969); type: functional
[7] = target: T2, Sentrin-specific protease 1 (Homo sapiens, UniProt Q9P0U3); assay: Dose response confirmation of small molecule inhibitors of the catalytic domain of the SUMO protease, SENP1 in a FRET assay.; type: functional; details: read-out: IC50_Mean
T2 sequence (Q9P0U3 whole entry): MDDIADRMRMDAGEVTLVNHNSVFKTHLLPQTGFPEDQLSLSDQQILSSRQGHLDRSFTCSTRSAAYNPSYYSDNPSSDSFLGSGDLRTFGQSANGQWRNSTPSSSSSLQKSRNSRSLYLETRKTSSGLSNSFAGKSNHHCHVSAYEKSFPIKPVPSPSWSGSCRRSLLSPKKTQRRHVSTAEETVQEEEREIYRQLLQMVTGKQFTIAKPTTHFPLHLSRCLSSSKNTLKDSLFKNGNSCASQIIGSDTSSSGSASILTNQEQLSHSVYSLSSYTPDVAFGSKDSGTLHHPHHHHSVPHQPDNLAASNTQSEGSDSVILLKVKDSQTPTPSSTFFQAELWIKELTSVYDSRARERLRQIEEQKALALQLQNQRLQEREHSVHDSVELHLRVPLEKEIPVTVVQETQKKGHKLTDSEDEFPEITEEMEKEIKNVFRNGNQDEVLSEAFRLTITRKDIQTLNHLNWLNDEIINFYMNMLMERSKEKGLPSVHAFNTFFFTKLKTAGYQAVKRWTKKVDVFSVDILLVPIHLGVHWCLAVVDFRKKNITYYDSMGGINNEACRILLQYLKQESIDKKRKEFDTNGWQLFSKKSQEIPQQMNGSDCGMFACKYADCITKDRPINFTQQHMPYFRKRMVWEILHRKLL

[8] = target: T2, Sentrin-specific protease 1; assay: potency of human SENP1 inhibitors, dose response, biochemical, kinetic FRET (AID 651697); type: functional; details: read-out: IC50_Mean
Paired box protein Pax-8 = Paired box protein Pax-8 (Homo sapiens, UniProt Q06710); assay: inhibitors of PAX8-driven TPO luciferase reporter, dose response, RMG-I cells, cherry-pick (AID 687027); type: functional, cell-based;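 also: luciferase reporter driven by Pax8 target thyroperoxidase promoter measured by SteadyGlo luminescence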
[9] = cytotoxicity in OVCAR8 ovarian cancer cells, dose response, PAX8 project, cell-based, plate reader, dry powder samples (AID 743197); type: functional; details: OVCAR-8
[10] = NIH:OVCAR-3 ovarian cancer cell cytotoxicity, dose response, PAX8 inhibitor project, plate reader, dry powder samples (AID 743044); type: functional, cell-based
[11] = A2780 ovarian cancer cell cytotoxicity, dose response, cytotoxicity control, plate reader, dry powder samples (AID 743046); type: functional, cell-based
[12] = target: T3, Small ubiquitin-related modifier 1 (Homo sapiens, UniProt P63165); assay: inhibitors of SUMO1 peptide binding, dose response, biochemical, fluorescence polarization, uHTS hits (AID 624382); type: functional; details: read-out: IC50_Mean
[13] = target: T3, Small ubiquitin-related modifier 1; assay: inhibitors of SUMO1 partner interactions, dose response, biochemical, FRET (AID 624383); type: functional; details: read-out: IC50_Mean
Caspase-6 = target: T4, Caspase-6 (Homo sapiens, UniProt P55212); assay: human caspase-6 inhibitors, dose response, biochemical, VEID-R110 fluorescence, cherry-pick (AID 720632)
T4 sequence (P55212 whole entry): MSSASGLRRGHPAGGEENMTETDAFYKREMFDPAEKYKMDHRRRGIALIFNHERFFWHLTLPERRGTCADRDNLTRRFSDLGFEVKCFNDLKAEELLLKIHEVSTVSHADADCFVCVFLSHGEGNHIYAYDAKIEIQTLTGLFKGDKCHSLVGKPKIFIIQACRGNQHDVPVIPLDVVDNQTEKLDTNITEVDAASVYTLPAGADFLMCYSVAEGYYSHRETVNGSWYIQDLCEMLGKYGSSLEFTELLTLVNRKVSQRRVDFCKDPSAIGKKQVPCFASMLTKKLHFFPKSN

[14] = ADAM10 inhibitors, peptide cleavage, dose response, biochemical, QFRET (AID 743254);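 also: ADAM10 enzyme with the DM2 quenched FRET peptide as substrate; EDANS fluorescence gain as the protease cuts the substrate; inhibitor potency against ADAM10 proteolytic activity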
[15] = target: Disintegrin and metalloproteinase domain-containing protein 17 (Homo sapiens, UniProt P78536); assay: ADAM17 protease inhibitors, dose response, counter-screen for ADAM10 exosite inhibitor project, biochemical, quenched FRET substrate (AID 743253)
Albumin = Albumin (Bos taurus, UniProt P02769); assay: Counterscreen for inhibitors of T-cell receptor (TCR)-CD3 interaction: Fluorescence-based biochemical high throughput dose response assay to identify inhibitors of T-cell receptor (TCR)-CD3 interaction using a TAMRA-labeled BSA probe.; type: functional
[16] = target: T5, Methionyl-tRNA synthetase, putative (Trypanosoma brucei brucei, UniProt Q38C91); type: functional, Trypanosoma brucei brucei strain 927/4 GUTat10.1
T5 sequence (Q38C91 whole entry): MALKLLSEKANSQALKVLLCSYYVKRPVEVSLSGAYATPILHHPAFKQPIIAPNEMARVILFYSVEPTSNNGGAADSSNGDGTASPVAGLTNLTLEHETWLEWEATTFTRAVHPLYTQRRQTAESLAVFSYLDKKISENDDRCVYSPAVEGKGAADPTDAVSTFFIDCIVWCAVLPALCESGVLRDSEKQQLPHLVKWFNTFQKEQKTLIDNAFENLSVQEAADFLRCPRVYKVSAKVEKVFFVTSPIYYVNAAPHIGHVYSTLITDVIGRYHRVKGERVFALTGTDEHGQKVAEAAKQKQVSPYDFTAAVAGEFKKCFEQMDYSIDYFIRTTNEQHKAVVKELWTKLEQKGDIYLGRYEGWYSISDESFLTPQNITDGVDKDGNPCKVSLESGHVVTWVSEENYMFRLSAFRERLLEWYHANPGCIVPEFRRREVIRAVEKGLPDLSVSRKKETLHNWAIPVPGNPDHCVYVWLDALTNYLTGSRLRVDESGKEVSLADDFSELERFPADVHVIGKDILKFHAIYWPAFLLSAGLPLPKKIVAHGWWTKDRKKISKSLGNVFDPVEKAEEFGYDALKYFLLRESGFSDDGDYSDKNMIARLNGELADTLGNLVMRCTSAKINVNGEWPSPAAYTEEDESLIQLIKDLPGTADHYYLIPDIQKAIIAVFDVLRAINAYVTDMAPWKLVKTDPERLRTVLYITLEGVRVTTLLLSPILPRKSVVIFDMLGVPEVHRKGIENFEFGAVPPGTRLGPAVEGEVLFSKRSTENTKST

[17] = target: T5, Methionyl-tRNA synthetase, putative; type: functional, Trypanosoma brucei brucei strain 927/4 GUTat10.1; remark: listed apart in the source
[18] = Counterscreen for inhibitors of Trypanosoma brucei methionyl tRNA synthetase (MetRS): Luminescence-based cell-based high throughput dose response assay to identify compounds that are cytotoxic to Jurkat human T lymphocyte cells.; type: functional

T3 sequence (P63165 whole entry): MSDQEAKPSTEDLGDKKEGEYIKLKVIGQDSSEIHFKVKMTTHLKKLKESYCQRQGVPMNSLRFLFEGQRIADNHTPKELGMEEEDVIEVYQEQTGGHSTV
Albumin, sequence (P02769 whole entry): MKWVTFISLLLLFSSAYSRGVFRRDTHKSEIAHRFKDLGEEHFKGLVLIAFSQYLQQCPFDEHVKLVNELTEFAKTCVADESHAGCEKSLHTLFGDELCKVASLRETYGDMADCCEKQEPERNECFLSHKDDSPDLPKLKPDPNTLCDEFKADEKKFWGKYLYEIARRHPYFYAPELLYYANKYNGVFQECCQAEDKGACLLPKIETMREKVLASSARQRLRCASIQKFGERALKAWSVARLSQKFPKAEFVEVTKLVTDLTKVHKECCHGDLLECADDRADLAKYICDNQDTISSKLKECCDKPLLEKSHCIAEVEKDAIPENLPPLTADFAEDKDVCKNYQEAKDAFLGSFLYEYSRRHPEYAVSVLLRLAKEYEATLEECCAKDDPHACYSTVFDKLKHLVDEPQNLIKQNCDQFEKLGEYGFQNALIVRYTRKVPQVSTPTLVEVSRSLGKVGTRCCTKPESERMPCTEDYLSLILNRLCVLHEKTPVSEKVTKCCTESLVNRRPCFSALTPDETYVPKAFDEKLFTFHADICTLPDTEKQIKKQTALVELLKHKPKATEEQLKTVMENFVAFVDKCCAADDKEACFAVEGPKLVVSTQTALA
Paired box protein Pax-8, sequence (Q06710 whole entry): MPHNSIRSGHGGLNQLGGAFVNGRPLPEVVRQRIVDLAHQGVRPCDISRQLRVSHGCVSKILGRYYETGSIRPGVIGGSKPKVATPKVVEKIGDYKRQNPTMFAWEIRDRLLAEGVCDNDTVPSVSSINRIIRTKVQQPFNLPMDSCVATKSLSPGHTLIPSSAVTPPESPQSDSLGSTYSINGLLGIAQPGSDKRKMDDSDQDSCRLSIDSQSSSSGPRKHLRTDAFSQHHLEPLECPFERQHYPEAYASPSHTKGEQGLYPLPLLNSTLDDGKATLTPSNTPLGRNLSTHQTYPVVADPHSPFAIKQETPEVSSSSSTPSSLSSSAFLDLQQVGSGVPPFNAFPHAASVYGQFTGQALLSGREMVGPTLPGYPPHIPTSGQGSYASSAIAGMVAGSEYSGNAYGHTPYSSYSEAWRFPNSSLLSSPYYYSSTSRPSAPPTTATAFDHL
Nuclear receptor subfamily 5 group A member 2, sequence (O00482 whole entry): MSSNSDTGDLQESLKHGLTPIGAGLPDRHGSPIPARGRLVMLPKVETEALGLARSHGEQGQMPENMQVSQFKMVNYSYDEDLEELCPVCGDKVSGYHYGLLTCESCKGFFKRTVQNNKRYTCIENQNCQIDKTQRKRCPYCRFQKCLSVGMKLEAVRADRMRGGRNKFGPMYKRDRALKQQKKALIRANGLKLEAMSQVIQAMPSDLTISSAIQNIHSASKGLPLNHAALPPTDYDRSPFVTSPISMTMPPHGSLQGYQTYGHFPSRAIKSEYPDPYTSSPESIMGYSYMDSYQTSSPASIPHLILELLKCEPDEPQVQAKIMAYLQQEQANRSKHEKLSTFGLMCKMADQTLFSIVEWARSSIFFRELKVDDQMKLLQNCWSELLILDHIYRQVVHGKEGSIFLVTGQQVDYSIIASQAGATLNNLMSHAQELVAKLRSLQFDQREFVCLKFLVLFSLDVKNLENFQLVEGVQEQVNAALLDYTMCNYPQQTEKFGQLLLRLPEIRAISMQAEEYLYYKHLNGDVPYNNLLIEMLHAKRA
Disintegrin and metalloproteinase domain-containing protein 17, sequence (P78536 whole entry, the tested form may be a part): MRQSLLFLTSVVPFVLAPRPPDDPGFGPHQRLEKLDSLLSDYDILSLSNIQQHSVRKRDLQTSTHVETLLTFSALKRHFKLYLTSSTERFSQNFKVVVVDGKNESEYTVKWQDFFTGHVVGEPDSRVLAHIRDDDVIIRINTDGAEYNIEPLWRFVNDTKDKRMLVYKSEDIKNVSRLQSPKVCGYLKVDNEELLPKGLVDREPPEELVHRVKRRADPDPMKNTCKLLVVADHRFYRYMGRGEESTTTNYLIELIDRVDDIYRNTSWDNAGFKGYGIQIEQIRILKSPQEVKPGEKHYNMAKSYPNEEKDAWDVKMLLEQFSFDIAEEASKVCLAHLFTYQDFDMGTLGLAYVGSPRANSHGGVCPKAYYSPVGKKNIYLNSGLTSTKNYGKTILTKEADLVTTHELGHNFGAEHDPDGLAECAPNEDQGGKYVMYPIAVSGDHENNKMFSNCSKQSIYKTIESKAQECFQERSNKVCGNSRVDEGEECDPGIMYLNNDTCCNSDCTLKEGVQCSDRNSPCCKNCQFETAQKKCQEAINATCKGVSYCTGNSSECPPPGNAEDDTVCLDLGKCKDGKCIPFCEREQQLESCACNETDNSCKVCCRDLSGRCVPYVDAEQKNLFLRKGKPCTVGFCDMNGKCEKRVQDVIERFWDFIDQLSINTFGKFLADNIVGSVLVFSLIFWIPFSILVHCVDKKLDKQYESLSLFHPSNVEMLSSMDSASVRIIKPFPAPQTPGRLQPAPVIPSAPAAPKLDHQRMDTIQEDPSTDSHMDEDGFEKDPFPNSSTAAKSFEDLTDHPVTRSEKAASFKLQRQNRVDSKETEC
Steroidogenic factor 1, sequence (Q13285 whole entry): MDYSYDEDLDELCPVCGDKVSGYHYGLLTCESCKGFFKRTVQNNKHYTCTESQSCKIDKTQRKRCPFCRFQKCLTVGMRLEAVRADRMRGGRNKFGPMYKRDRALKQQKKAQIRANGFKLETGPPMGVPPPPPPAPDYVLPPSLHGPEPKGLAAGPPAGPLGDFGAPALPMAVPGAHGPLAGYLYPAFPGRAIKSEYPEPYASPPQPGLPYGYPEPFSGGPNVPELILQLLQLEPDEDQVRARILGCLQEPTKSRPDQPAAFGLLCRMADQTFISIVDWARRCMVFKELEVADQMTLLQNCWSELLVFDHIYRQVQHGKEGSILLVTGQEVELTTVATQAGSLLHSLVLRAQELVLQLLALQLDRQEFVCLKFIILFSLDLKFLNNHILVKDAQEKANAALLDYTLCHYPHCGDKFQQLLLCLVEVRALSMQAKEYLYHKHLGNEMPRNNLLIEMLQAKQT

Structure (SMILES): Cc1cc(/C=C2/SC(=S)N(c3cccc(Cl)c3)C2=O)c(C)n1-c1cccnc1
AC50 [1]: 47.8 µM (active)
AC50 [2]: 0.979 µM (active)
IC50 [3]: 5.65 µM (active)
AC50 [4]: 3.55 µM (active)

Structure (SMILES): O=C(CSc1nnc(CNC(=O)c2c(F)cccc2F)o1)Nc1ccc2c(c1)OCCO2
IC50 [5]: 35.9 µM (inactive)
IC50 (Steroidogenic factor 1): 31 µM (inactive)
IC50 [6]: 35.9 µM (inactive)

IC50 [7]: 1.93 µM (active)
IC50 [8]: 7.1 µM (active)
Structure (SMILES): Cc1cccc(C)c1-n1nnnc1-c1nc2cc3ccccc3cc2nc1O

Structure (SMILES): C[C@H](CO)N1C[C@H](C)[C@@H](CN(C)Cc2ccc(C(F)(F)F)cc2)OCCCC[C@H](C)Oc2ccc(NC(=O)Nc3ccc(F)cc3)cc2C1=O
AC50 (Paired box protein Pax-8): 9.37 µM (active)
AC50 [9]: 39.2 µM (active)
AC50 [10]: 45.4 µM (active)
AC50 [11]: 46.6 µM (active)

Structure (SMILES): COc1ccc(Cl)cc1Nc1nc(-c2sc(NC(=O)C(C)(C)C)nc2C)cs1
IC50 [12]: > 66.6 µM (inactive)
IC50 [3]: 11.2 µM (inactive)
IC50 [13]: 7.99 µM (active)

IC50 [7]: 8.08 µM (active)
IC50 [8]: 7.31 µM (active)
Structure (SMILES): COC(=O)c1ccc(-c2nc(O)c(C)s2)cc1

Structure (SMILES): C[C@@H]1CN([C@@H](C)CO)C(=O)c2cc(NC(=O)Nc3ccccc3)ccc2O[C@@H](C)CCCCO[C@H]1CN(C)Cc1ccc(Cl)c(Cl)c1
AC50 [11]: 3.59 µM (active)

AC50 (Caspase-6): 50.4 µM (active)
Structure (SMILES): O=C(c1ccncc1)N1CCCCN2[C@H](C1)[C@H](c1ccc(C#Cc3ccccn3)cc1)[C@@H]2CO

IC50 [14]: > 69.5 µM (inactive)
IC50 [15]: > 69.5 µM (inactive)
Structure (SMILES): C[C@@H]1CCCCO[C@@H](CN(C)C(=O)Nc2ccc3c(c2)OCO3)[C@@H](C)CN([C@H](C)CO)C(=O)c2cc(NC(=O)Nc3ccc(C(F)(F)F)cc3)ccc2O1

IC50 (Albumin): > 94.1 µM (inactive)
Structure (SMILES): O=C(CSc1nc2ccccc2s1)N/N=C/c1cc([N+](=O)[O-])ccc1O

Structure (SMILES): O=C(CN1CCS/C1=N/Cc1ccccc1)c1ccc(Cl)c(Cl)c1
IC50 [16]: 3.92 µM (active)
IC50 [17]: 2.67 µM (active)
IC50 [18]: 48.2 µM (inactive)
